# Experiment: Solubility of rapamycin in solvents
# Type: physicochemical
# Text: Formulations for topical or transdermal delivery systems which effectively administer mTOR inhibitors to treat pain can be challenging to make. One such challenge can be caused by the structures of the various mTOR inhibitors and the associated solubility and/or stability challenges that exist for many of these compounds. […] Benzyl alcohol has been identified as a solvent that can effectively solubilize rapamycin. In particular, benzyl alcohol can support 20 wt % solutions and higher of rapamycin. […] For example, formulations utilizing Span 80 and/or Tween 20 as surfactants were only able to achieve benzyl alcohol loading of 20 wt % or less.
smiles,measurement,setting,value
CO[C@H]1C[C@@H]2CC[C@@H](C)[C@@](O)(O2)C(=O)C(=O)N2CCCC[C@H]2C(=O)O[C@H]([C@H](C)C[C@@H]2CC[C@@H](O)[C@H](OC)C2)CC(=O)[C@H](C)/C=C(\C)[C@@H](O)[C@@H](OC)C(=O)[C@H](C)C[C@H](C)/C=C/C=C/C=C/1C [rapamycin],"solubility in aqueous compositions, ethanolic compositions, triglycerides, alkanes, and silicone systems",,poorly solubilized
same,solubility in benzyl alcohol,benzyl alcohol solution,≥ 20 wt %
